From article PMC10709440, “High-throughput ligand profile characterization in novel cell lines expressing seven heterologous insect olfactory receptors for the detection of volatile plant biomarkers” (Scientific Reports, 2023)

What was measured:
Drosophila OR85b = target: T1, Drosophila OR85b (Drosophila melanogaster, UniProt Q9VHQ7); assay: cell-based; design: GCaMP6 calcium fluorescence in stable HEK293 OR+ORCO lines; peak dF normalised to 50 uM VUAA1 (=1); conditions: HEK293; relative to 50 uM VUAA1 response; below 0.05 set to 0; read-out: % activation
T1 construct: expressed in transfected cells
T1 sequence (Q9VHQ7 1-390): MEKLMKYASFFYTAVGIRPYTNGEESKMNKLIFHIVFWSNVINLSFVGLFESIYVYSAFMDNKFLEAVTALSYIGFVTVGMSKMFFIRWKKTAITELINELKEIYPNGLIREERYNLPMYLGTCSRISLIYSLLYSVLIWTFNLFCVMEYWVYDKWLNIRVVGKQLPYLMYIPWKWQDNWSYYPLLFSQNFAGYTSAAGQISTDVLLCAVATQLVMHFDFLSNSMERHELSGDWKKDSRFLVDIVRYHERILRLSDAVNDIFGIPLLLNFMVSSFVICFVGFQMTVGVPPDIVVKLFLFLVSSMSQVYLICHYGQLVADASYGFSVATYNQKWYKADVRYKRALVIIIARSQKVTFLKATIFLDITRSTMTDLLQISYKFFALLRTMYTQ
T1 sequence (Q9VNB5 1-486 partner): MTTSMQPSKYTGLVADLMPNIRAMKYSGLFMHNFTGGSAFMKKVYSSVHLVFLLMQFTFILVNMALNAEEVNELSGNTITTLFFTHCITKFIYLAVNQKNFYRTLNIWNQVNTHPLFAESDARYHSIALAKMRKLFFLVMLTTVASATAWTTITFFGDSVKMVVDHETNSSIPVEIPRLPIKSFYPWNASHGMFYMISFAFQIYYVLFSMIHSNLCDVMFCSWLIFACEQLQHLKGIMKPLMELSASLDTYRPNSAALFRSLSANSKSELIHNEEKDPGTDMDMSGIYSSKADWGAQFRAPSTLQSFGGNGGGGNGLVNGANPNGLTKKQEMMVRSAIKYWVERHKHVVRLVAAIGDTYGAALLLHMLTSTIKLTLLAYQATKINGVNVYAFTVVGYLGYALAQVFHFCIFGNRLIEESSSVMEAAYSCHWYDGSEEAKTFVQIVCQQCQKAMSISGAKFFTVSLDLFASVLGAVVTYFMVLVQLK
Description: (§1) Twelve thousand to 18,000 cells were plated into each well of a black wall, transparent bottom 384-well microplate (Greiner) 48 h or 72 h before the measurements and were simultaneously treated with 1 μg/mL doxycycline. Typically, three columns were filled with one OR expressing cell line, each row was treated with the same compound (three technical replicates for each OR), and each responsive VOC-OR combination was measured at least three times on different days. The plate has 24 columns, thus we could record responses in up to eight different cell lines in each plate. On the day of the experiment, the growth medium was replaced with 20 µL assay buffer/well (140 mM NaCl, 5 mM KCl, 2 mM CaCl2, 1 mM MgCl2, 5 mM HEPES-Na, 20 mM glucose, pH 7.3, 340 mOsm). […] Baseline fluorescence (F0) was recorded for 5 s, after which 7 µL VOC buffer (140 mM NaCl, 5 mM KCl, 2 mM CaCl2, 1 mM MgCl2, 5 mM HEPES-Na, 31 mM glucose, 0.1% DMSO, pH 7.3, 340 mOsm) was injected into each well in one row and the fluorescence response was recorded for an additional 30 s, at a rate of one read/sec. VOC solutions (VOC buffer with 4× concentration of the final measured VOC concentration, 9 µL/well was injected) were measured on the same wells in a second round with the same protocol. Each individual concentration of a specific VOC sample was recorded in three wells for the same cell line on the same microplate. The raw data were exported in xls file format, F0 and FMAX values, and the fluorescence intensity changes (∆F) were calculated in Excel (Microsoft) (Supplementary file Data summary.xlsx) using the following equation: ΔF=FMAX-F0/F0 (see also Fig. 1C). On each plate, we recorded the response of each cell line to 50 µM VUAA1. The average of these ∆F values of each cell line were used to calculate the VUAA1-normalized values for the rest of the plate, by dividing VOC response ∆F values by the average VUAA1 response ∆F value of the corresponding OR cell line. Each VOC-OR combination was measured three times as tec The recorded FMAX, F0, ∆F, VUAA1-normalized ∆F values, as well as the OR name, the name of the tested sample, and the final concentration for each well were copied into supplementary file Data summary.xlsx, that was used to summarize all the plates recorded. Here, the averages of the measurements were calculated for each receptor-VOC-concentration combination. […] Each VOC was measured at 1, 10, and 100 µM final concentration on each receptor. VUAA1-normalized response was calculated as described in methods. Values are averages of at least three biological replicates for responsive combinations and two for the non-responsive combinations. The chemical structures of the strong and medium ligands are shown for each cell line. Heat map: white-green colors correspond to the lowest-highest values measured for each cell line.

Drosophila OR49b = target: T2, Drosophila OR49b (Drosophila melanogaster, UniProt Q9V6H2); assay: cell-based; design: GCaMP6 calcium fluorescence in stable HEK293 OR+ORCO lines; peak dF normalised to 50 uM VUAA1 (=1); conditions: HEK293; relative to 50 uM VUAA1 response; below 0.05 set to 0; read-out: % activation
T2 construct: expressed in transfected cells
T2 sequence (Q9V6H2 1-375): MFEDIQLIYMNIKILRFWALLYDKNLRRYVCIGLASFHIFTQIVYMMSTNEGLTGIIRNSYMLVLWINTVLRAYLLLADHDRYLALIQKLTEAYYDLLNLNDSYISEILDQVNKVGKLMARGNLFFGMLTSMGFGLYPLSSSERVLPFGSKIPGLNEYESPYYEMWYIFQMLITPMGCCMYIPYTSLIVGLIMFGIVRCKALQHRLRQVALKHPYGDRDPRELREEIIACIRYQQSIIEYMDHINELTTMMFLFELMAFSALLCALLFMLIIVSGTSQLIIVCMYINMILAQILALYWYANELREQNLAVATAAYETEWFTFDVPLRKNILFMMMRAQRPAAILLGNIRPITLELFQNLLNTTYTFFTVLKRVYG
T2 sequence (Q9VNB5 1-486 partner): T1 sequence (Q9VNB5 1-486 partner)
Description: as §1

## CC/C=C/CCO [e3-hexenol]
Drosophila OR85b
  activity at 1 µM: 0%
  activity at 10 µM: 0%
  activity at 100 µM: 0%
Drosophila OR49b
  activity at 1 µM: 0%
  activity at 10 µM: 0%
  activity at 100 µM: 7.89%
